# Like-named read-outs stand apart in the source and are kept apart here.
# Tests used:
# [1] = tested on: serum and liver lipid levels in normal rats; experiment: Effects on relative liver weight, serum and liver lipid levels in normal rats (100 mg/kg, 7 days); assay type: in vivo, Male Wistar strain rats; settings: for Liver lipid levels Ch / Liver lipid levels PL / Liver lipid levels TG / Serum lipid levels Ch / Serum lipid levels PL / Serum lipid levels TG / Relative liver weight / Liver lipid levels Ch, relative to Control (100) / Liver lipid levels PL, relative to Control (100) / Liver lipid levels TG, relative to Control (100) / Relative liver weight, relative to Control (100) / Serum lipid levels Ch, relative to Control (100) / Serum lipid levels PL, relative to Control (100) / Serum lipid levels TG, relative to Control (100): Table 1; for Liver lipid levels Ch / Liver lipid levels PL / Liver lipid levels TG / Serum lipid levels Ch / Serum lipid levels PL / Serum lipid levels TG: fasted overnight; for Liver lipid levels Ch / Liver lipid levels PL / Liver lipid levels TG / Serum lipid levels Ch / Serum lipid levels PL / Serum lipid levels TG / Relative liver weight: mean ± S.E. (n = 6); for Liver lipid levels Ch, relative to Control (100) / Liver lipid levels PL, relative to Control (100) / Liver lipid levels TG, relative to Control (100) / Relative liver weight, relative to Control (100) / Serum lipid levels Ch, relative to Control (100) / Serum lipid levels PL, relative to Control (100) / Serum lipid levels TG, relative to Control (100): in parentheses
# Description: (1) Effects on relative liver weight, serum and liver lipid levels in normal rats
# Male Wistar strain rats, weighing 180-210 g were orally administered the present compounds (X=Cl, n1 =2, 3, 4 and n2 =1) and 4-(4-chlorobenzyloxy)benzyl nicotinate (KCD-232), being X=Cl, n1 =1, n2 =1, respectively, which were suspended in 0.5% carboxymethyl cellulose (CMC) solution once a day at a dose of 100 mg/kg b.w. for 7 days. The last administration was occured in rats fasted overnight. At 4 hr later blood was withdrawn from jugular vein, clotted and centrifuged to obtain serum. The liver was rapidly removed and weighed. Total lipids were extracted from the serum and liver, and cholesterol (Ch), triglycerides (TG) and phospholipids (PL) levels were determined.
# [2] = tested on: serum and liver lipid levels in rats; experiment: Serum and liver lipid levels and relative liver weight in rats (100 mg/kg, 10 days); assay type: in vivo, Male rats of the Wistar strain; settings: for response vs control in vivo at 100 mg/kg: Rattus norvegicus, po; for response vs control in vivo at 100 mg/kg / Relative liver weight, relative to Control (100): in parentheses, Control = (100); for Liver lipid levels Ch / Liver lipid levels PL / Liver lipid levels TG / Relative liver weight / Serum lipid levels Ch / Serum lipid levels PL / Serum lipid levels TG: Mean ± S.E. (n = 9)
# Description: (2) Male rats of the Wistar strain weighing 160-180 g were fed a stock deit (CE-2, Japan CLEA, Tokyo) and water ad libitum. The present compounds and KCD-232 were suspended, respectively, in a 0.5% of CMC solution and give orally to rats once a day at a dose of 100 mg/kg b.w. for 10 days.
# Control rats were received the 0.5% CMC solution alone. The diet was withdrawn immediately after the last administration of compounds. Animals were sacrificed by decapitation 4 hr after the last administration and blood was collected, clotted and centrifuged to obtain serum. The liver was excised quickly and weighed. Total lipids were extracted from the serum and liver, and the levels of Ch, TG and PL were determined colorimetrically.
# [3] = tested on: serum and liver lipid levels in rats; experiment: Serum and liver lipid levels and relative liver weight in rats (25 mg/kg, 10 days); assay type: in vivo, male Wistar rats; settings: Table 4; for Liver lipid levels Ch / Liver lipid levels PL / Liver lipid levels TG / Relative liver weight / Serum lipid levels Ch / Serum lipid levels PL / Serum lipid levels TG: 25 mg/kg p.o. 10 days, Mean ± S.E. (n = 7); for Liver lipid levels Ch, relative to Control (100) / Liver lipid levels PL, relative to Control (100) / Liver lipid levels TG, relative to Control (100) / Relative liver weight, relative to Control (100) / Serum lipid levels Ch, relative to Control (100) / Serum lipid levels PL, relative to Control (100) / Serum lipid levels TG, relative to Control (100): in parentheses
# Description: (3) The present compounds and KCD-232 were orally given to male Wistar rats weighing 160-180 g once a day at a dose of 25 mg/kg b.w. for 10 days. Rats were subjected to fast for 4 hr immediately after the last administration of compounds, thereafter they were sacrificed by decapitation and blood was collected, clotted and centrifuged to obtain serum. The liver was removed quickly and weighed. Total lipids were extracted from the serum and liver, and then the levels of total Ch, TG and PL were determined with colorimetric methods.
# [4] = in vivo; settings: mouse, po, p o, male ICR mice
# Source text: The present compounds were given to 6 week-old male mice of the ICR strain and their acute toxicity was examined.
# [5] = 240 h, Table 2, read-out: Liver lipid levels PL, relative to Control (100)
# [6] = Table 2, read-out: Liver lipid levels Ch, relative to Control (100)
# [7] = Table 2, read-out: Liver lipid levels TG, relative to Control (100)
# [8] = Table 2, read-out: Serum lipid levels Ch, relative to Control (100)
# [9] = Table 2, read-out: Serum lipid levels PL, relative to Control (100)
# [10] = Table 2, read-out: Serum lipid levels TG, relative to Control (100)
# [11] = Table 2, 100 mg/kg p.o. 10 days
# [12] = Table 3, 100 mg/kg p.o. 10 days
compound,measurement,setting,value
"O=C(OCc1ccc(OCc2ccc(Cl)cc2)cc1)c1cccnc1 [KCD-232, 4-(4-chlorobenzyloxy)benzyl nicotinate, reference compound]",Liver lipid levels Ch,[1]; 100 mg/kg p.o. 7 days,3.88 ± 0.12 mg/g liver
same,Liver lipid levels PL,[1]; 100 mg/kg p.o. 7 days,36.6 ± 0.7 mg/g liver
same,Liver lipid levels TG,[1]; 100 mg/kg p.o. 7 days,21.45 ± 2.23 mg/g liver
same,Serum lipid levels Ch,[1]; 100 mg/kg p.o. 7 days,58.5 ± 5 mg/dL
same,Serum lipid levels PL,[1]; 100 mg/kg p.o. 7 days,77.7 ± 6.4 mg/dL
same,Serum lipid levels TG,[1]; 100 mg/kg p.o. 7 days,23.4 ± 2.2 mg/dL
same,Relative liver weight,[1]; 100 mg/kg p.o. 7 days,3.20 ± 0.10 g/100 g b.w.
same,"Liver lipid levels Ch, relative to Control (100)",[1],110
same,"Liver lipid levels PL, relative to Control (100)",[1],99
same,"Liver lipid levels TG, relative to Control (100)",[1],291
same,"Relative liver weight, relative to Control (100)",[1],104
same,"Serum lipid levels Ch, relative to Control (100)",[1],77
same,"Serum lipid levels PL, relative to Control (100)",[1],76
same,"Serum lipid levels TG, relative to Control (100)",[1],69
same,liver TG level (in words),[1]; last administration in rats fasted overnight,remarkably rose liver TG level
same,response vs control in vivo at 100 mg/kg,[2]; [5],99.2%
same,response vs control in vivo at 100 mg/kg,"[2]; 240 h, Table 3, read-out: Liver lipid levels PL, relative to Control (100)",99.7%
same,response vs control in vivo at 100 mg/kg,[2]; [6],104%
same,response vs control in vivo at 100 mg/kg,[2]; [7],63.3%
same,response vs control in vivo at 100 mg/kg,[2]; [8],72.5%
same,response vs control in vivo at 100 mg/kg,[2]; [9],67.3%
same,response vs control in vivo at 100 mg/kg,[2]; [10],32.7%
same,response vs control in vivo at 100 mg/kg,"[2]; Table 3, read-out: Liver lipid levels Ch, relative to Control (100)",103%
same,response vs control in vivo at 100 mg/kg,"[2]; Table 3, read-out: Liver lipid levels TG, relative to Control (100)",65.2%
same,response vs control in vivo at 100 mg/kg,"[2]; Table 3, read-out: Serum lipid levels Ch, relative to Control (100)",70%
same,response vs control in vivo at 100 mg/kg,"[2]; Table 3, read-out: Serum lipid levels PL, relative to Control (100)",62.1%
same,response vs control in vivo at 100 mg/kg,"[2]; Table 3, read-out: Serum lipid levels TG, relative to Control (100)",36.1%
same,Liver lipid levels Ch,[2]; [11],3.15 ± 0.08 mg/g liver
same,Liver lipid levels PL,[2]; [11],37.8 ± 0.6 mg/g liver
same,Liver lipid levels TG,[2]; [11],4.00 ± 0.28 mg/g liver
same,Relative liver weight,[2]; [11],4.05 ± 0.05 g/100 g b.w.
same,Serum lipid levels Ch,[2]; [11],62.8 ± 3 mg/dL
same,Serum lipid levels PL,[2]; [11],100 ± 4.6 mg/dL
same,Serum lipid levels TG,[2]; [11],40.5 ± 2.7 mg/dL
same,"Relative liver weight, relative to Control (100)",[2]; Table 2,105
same,Liver lipid levels Ch,[2]; [12],2.39 ± 0.07 mg/g liver
same,Liver lipid levels PL,[2]; [12],36.1 ± 0.4 mg/g liver
same,Liver lipid levels TG,[2]; [12],4.67 ± 0.42 mg/g liver
same,Relative liver weight,[2]; [12],3.71 ± 0.07 g/100 g b.w.
same,Serum lipid levels Ch,[2]; [12],68.3 ± 3.1 mg/dL
same,Serum lipid levels PL,[2]; [12],96.8 ± 3.4 mg/dL
same,Serum lipid levels TG,[2]; [12],45.3 ± 3.5 mg/dL
same,"Relative liver weight, relative to Control (100)",[2]; Table 3,98
same,Liver lipid levels Ch,[3],2.98 ± 0.08 mg/g liver
same,Liver lipid levels PL,[3],40.2 ± 0.6 mg/g liver
same,Liver lipid levels TG,[3],4.36 ± 0.65 mg/g liver
same,Relative liver weight,[3],3.72 ± 0.07 g/100 g b.w.
same,Serum lipid levels Ch,[3],63.5 ± 3.1 mg/dL
same,Serum lipid levels PL,[3],89 ± 4.4 mg/dL
same,Serum lipid levels TG,[3],31.3 ± 2.9 mg/dL
same,"Liver lipid levels Ch, relative to Control (100)",[3],91.7
same,"Liver lipid levels PL, relative to Control (100)",[3],105.8
same,"Liver lipid levels TG, relative to Control (100)",[3],58.6
same,"Relative liver weight, relative to Control (100)",[3],105
same,"Serum lipid levels Ch, relative to Control (100)",[3],81.4
same,"Serum lipid levels PL, relative to Control (100)",[3],82.3
same,"Serum lipid levels TG, relative to Control (100)",[3],82.8
same,LD50,[4],345 mg/kg
"O=C(OCc1ccc(OCCCc2ccc(Cl)cc2)cc1)c1cccnc1 [n1=3, n2=1, 4-[3-(4-Chlorophenyl)propoxy]benzyl nicotinate]","serum Ch, TG and PL (in words)","[1]; 100 mg/kg p.o. 7 days, compared with control","significantly reduced serum Ch, TG and PL"
same,Liver lipid levels Ch,[1]; 100 mg/kg p.o. 7 days,3.57 ± 0.15 mg/g liver
same,Liver lipid levels PL,[1]; 100 mg/kg p.o. 7 days,34.1 ± 1.8 mg/g liver
same,Liver lipid levels TG,[1]; 100 mg/kg p.o. 7 days,5.95 ± 1.83 mg/g liver
same,Serum lipid levels Ch,[1]; 100 mg/kg p.o. 7 days,48.4 ± 5.4 mg/dL
same,Serum lipid levels PL,[1]; 100 mg/kg p.o. 7 days,64.4 ± 5.2 mg/dL
same,Serum lipid levels TG,[1]; 100 mg/kg p.o. 7 days,18 ± 2.5 mg/dL
same,Relative liver weight,[1]; 100 mg/kg p.o. 7 days,3.20 ± 0.06 g/100 g b.w.
same,"Liver lipid levels Ch, relative to Control (100)",[1],101
same,"Liver lipid levels PL, relative to Control (100)",[1],92
same,"Liver lipid levels TG, relative to Control (100)",[1],81
same,"Relative liver weight, relative to Control (100)",[1],104
same,"Serum lipid levels Ch, relative to Control (100)",[1],64
same,"Serum lipid levels PL, relative to Control (100)",[1],63
same,"Serum lipid levels TG, relative to Control (100)",[1],53
same,lipid lowering effects compared with KCD-232 (in words),[2]; 100 mg/kg p.o. 10 days,the lipid lowering effects were superior to that of KCD-232
same,response vs control in vivo at 100 mg/kg,[2]; [5],104%
same,response vs control in vivo at 100 mg/kg,[2]; [6],101%
same,response vs control in vivo at 100 mg/kg,[2]; [7],59.3%
same,response vs control in vivo at 100 mg/kg,[2]; [8],71.9%
same,response vs control in vivo at 100 mg/kg,[2]; [9],65.2%
same,response vs control in vivo at 100 mg/kg,[2]; [10],24.7%
same,Liver lipid levels Ch,[2]; [11],3.09 ± 0.15 mg/g liver
same,Liver lipid levels PL,[2]; [11],39.8 ± 0.8 mg/g liver
same,Liver lipid levels TG,[2]; [11],3.75 ± 0.27 mg/g liver
same,Relative liver weight,[2]; [11],3.89 ± 0.10 g/100 g b.w.
same,Serum lipid levels Ch,[2]; [11],62.3 ± 3.1 mg/dL
same,Serum lipid levels PL,[2]; [11],96.8 ± 5 mg/dL
same,Serum lipid levels TG,[2]; [11],30.6 ± 2.8 mg/dL
same,"Relative liver weight, relative to Control (100)",[2]; Table 2,101
same,Liver lipid levels Ch,[3],3.16 ± 0.13 mg/g liver
same,Liver lipid levels PL,[3],40.3 ± 0.9 mg/g liver
same,Liver lipid levels TG,[3],3.97 ± 0.35 mg/g liver
same,Relative liver weight,[3],3.84 ± 0.13 g/100 g b.w.
same,Serum lipid levels Ch,[3],60.3 ± 5.3 mg/dL
same,Serum lipid levels PL,[3],83.2 ± 8.5 mg/dL
same,Serum lipid levels TG,[3],24.2 ± 2.8 mg/dL
same,"Liver lipid levels Ch, relative to Control (100)",[3],97.2
same,"Liver lipid levels PL, relative to Control (100)",[3],106.1
same,"Liver lipid levels TG, relative to Control (100)",[3],53.4
same,"Relative liver weight, relative to Control (100)",[3],109
same,"Serum lipid levels Ch, relative to Control (100)",[3],76.9
same,"Serum lipid levels PL, relative to Control (100)",[3],76.9
same,"Serum lipid levels TG, relative to Control (100)",[3],64.0
same,LD50,[4],> 4000 mg/kg

# Source: US4556715A, “Nicotinic acid derivatives” (Kyorin Pharmaceutical Co., Ltd., priority 1980, dated 1985)
